Patent US10246437B2, “Crystal form of neratinib maleate and preparation method therefor” (CRYSTAL PHARMATECH CO., LTD, priority 2015, dated 2019)
In brackets after ≈: the same amount, converted by molar mass. Entries after “also recorded” stand apart in the source; their conditions may differ. Where a name gives a salt, the structure may show the parent alone.

What was measured:
[1] = Solubility comparison in pH 1.8 SGF and high purity water, saturated solutions determined by HPLC; assay type: physicochemical; conditions: for solubility at 1 h / solubility at 4 h / solubility at 24 h: thermodynamic from solid; for Solubility in comparison to maleate Form II in CN101918390B: pH 1.8 SGF and high purity water, after 1, 4 and 24 hours; for Solubility: maleate
Method: Maleate crystalline Form A, Form B of the present invention and maleate Form II in CN101918390B were added in pH 1.8 SGF (simulated gastric fluid), and in high purity water to obtain suspensions. Concentrations in the saturation solutions were determined after 1 hour, 4 hours and 24 hours by HPLC.

[2] = Stability assessment on storage, XRPD patterns collected after storage; assay type: physicochemical; conditions: maleate
Method: Form B in the present invention were stored under 5° C., 25° C./60% relative humidity and 40° C./75% RH for 90 days. XRPD patterns were collected after storage.
Form C of the present invention was stored under 5° C., 25° C./60% RH and 40° C./75% relative humidity for 330 days. XRPD patterns were collected after storage.

[3] = Hygroscopicity by dynamic vapor sorption (DVS); assay type: physicochemical; conditions: DVS at 25° C., 80% RH; maleate
Method: Hygroscopicity of 10 mg of Form C of the present invention was tested using dynamic vapor sorption (DVS) at 25° C. […].
About hygroscopicity characterization description and definition of hygroscopicity (Chinese Pharmacopoeia 2010 edition appendix XIXJ Drug hygroscopic test guidelines, test at 25° C.+/−1° C., 80% Relative Humidity) • deliquescent: sufficient water is absorbed to form a liquid; • very hygroscopic: increase in mass is equal to or greater than 15 percent; • hygroscopic: increase in mass is less than 15 percent and equal to or greater than 2 percent; • slightly hygroscopic: increase in mass is less than 2 percent and equal to or greater than 0.2 percent. • no or almost no hygroscopic: increase in mass is less than 0.2%

[4] = Stability comparison: 1:1 mixed suspension of Form C and Form II stirred in solvent, solid tested by XRPD; assay type: physicochemical; conditions: nitromethane, 24 hours, Form C versus Form II
Method: 10.0 mg of maleate crystalline Form C and maleate crystalline Form II in CN101918390B were mixed at a ratio of 1:1 and added into 1.0 mL of solvent to obtain a suspension. The suspension was magnetically stirred at 500 rpm at 25° C. for 24 hours, and centrifuged to give a solid which was tested by XRPD.

[5] = as disclosed in CN101918390B; cited from earlier work

CCOc1cc2ncc(C#N)c(Nc3ccc(OCc4ccccn4)c(Cl)c3)c2cc1NC(=O)/C=C/CN(C)C [Form A, (2E)-N-[4-[[3-chloro-4-[(pyridin-2-yl)methoxy]phenyl]amino]-3-cyano-7-ethoxyquinolin-6-yl]-4-(dimethylamino)but-2-enamide maleate]
solubility at 1 h ([1]; pH 1.8, simulated gastric fluid, pH 1.8 SGF, 1 h): > 8400 µg/mL
solubility at 4 h ([1]; pH 1.8, simulated gastric fluid, pH 1.8 SGF, 4 h): > 8400 µg/mL
solubility at 24 h ([1]; pH 1.8, simulated gastric fluid, pH 1.8 SGF, 24 h): > 8400 µg/mL
Solubility in comparison to maleate Form II in CN101918390B [1]: higher solubility
solubility at 1 h ([1]; water, H2O (high purity water), 1 h): > 3900 µg/mL
solubility at 4 h ([1]; water, H2O (high purity water), 4 h): > 3900 µg/mL
solubility at 24 h ([1]; water, H2O (high purity water), 24 h): > 3900 µg/mL

CCOc1cc2ncc(C#N)c(Nc3ccc(OCc4ccccn4)c(Cl)c3)c2cc1NC(=O)/C=C/CN(C)C [Form B, (2E)-N-[4-[[3-chloro-4-[(pyridin-2-yl)methoxy]phenyl]amino]-3-cyano-7-ethoxyquinolin-6-yl]-4-(dimethylamino)but-2-enamide maleate]
Form Change ([2]; 5° C., 90 days): remains unchanged; also recorded: Form B doesn't change
Form Change ([2]; 25° C./60% RH, 90 days): remains unchanged; also recorded: Form B doesn't change
Form Change ([2]; 40° C./75% RH, 90 days): remains unchanged; also recorded: Form B doesn't change
Solubility ([1]; H2O (high purity water), 1 h): >5400 µg/mL
Solubility ([1]; H2O (high purity water), 4 h): >5400 µg/mL
Solubility ([1]; H2O (high purity water), 24 h): >5400 µg/mL
Solubility in comparison to maleate Form II in CN101918390B [1]: higher solubility
Solubility ([1]; pH 1.8 SGF, 1 h): >6700 µg/mL
Solubility ([1]; pH 1.8 SGF, 4 h): >6700 µg/mL
Solubility ([1]; pH 1.8 SGF, 24 h): >6700 µg/mL

CCOc1cc2ncc(C#N)c(Nc3ccc(OCc4ccccn4)c(Cl)c3)c2cc1NC(=O)/C=C/CN(C)C [Form C, (2E)-N-[4-[[3-chloro-4-[(pyridin-2-yl)methoxy]phenyl]amino]-3-cyano-7-ethoxyquinolin-6-yl]-4-(dimethylamino)but-2-enamide maleate]
Form Change ([2]; 5° C., 330 days): remains unchanged; also recorded: Form C doesn't change
Form Change ([2]; 25° C./60% RH, 330 days): remains unchanged; also recorded: Form C doesn't change
Form Change ([2]; 40° C./75% RH, 330 days): remains unchanged; also recorded: Form C doesn't change
weight increment under 80% Relative Humidity [3]: 1.01%
Stability comparison (form conversion in mixed suspension) ([4]; maleate): more stable than maleate crystalline Form II

CCOc1cc2ncc(C#N)c(Nc3ccc(OCc4ccccn4)c(Cl)c3)c2cc1NC(=O)/C=C/CN(C)C [Form II, reference compound]
Stability comparison (form conversion in mixed suspension) [4]: transferred to crystalline Form C
solubility at 1 h ([1]; simulated gastric fluid (SGF), simulated gastric fluid, pH 1.8 SGF, 1 h): 3300 µg/mL (≈ 5.92 mM)
solubility at 4 h ([1]; simulated gastric fluid (SGF), simulated gastric fluid, pH 1.8 SGF, 4 h): 3200 µg/mL (≈ 5.74 mM)
solubility at 24 h ([1]; simulated gastric fluid (SGF), simulated gastric fluid, pH 1.8 SGF, 24 h): 3100 µg/mL (≈ 5.56 mM)
solubility at 1 h ([1]; H2O (high purity water), 1 h): 1000 µg/mL (≈ 1.8 mM)
solubility at 4 h ([1]; H2O (high purity water), 4 h): 940 µg/mL (≈ 1.69 mM)
solubility at 24 h ([1]; H2O (high purity water), 24 h): 940 µg/mL (≈ 1.69 mM)

CCOc1cc2ncc(C#N)c(Nc3ccc(OCc4ccccn4)c(Cl)c3)c2cc1NC(=O)/C=C/CN(C)C [Form I]
Form conversion by absorbing moisture in the air [5]: can easily convert to Form II
